Test results: PubChem BioAssay (NCI)
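Growth conditions: 96-well plates. Treatment: test compound, 48 hours, 5 concentrations. Analysis: linear interpolation between bracketing concentrations; unreached endpoints set to highest concentration. GI50: concentration for 50% inhibition of growth. At the TGI there is no net growth.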

How the values were obtained:
Test in all cases: NCI tumour cell line growth inhibition, 48 h
NCI-H23 lung = system: NCI-H23 lung
SK-MEL-2 melanoma = system: SK-MEL-2 melanoma
SF-268 CNS = system: SF-268 CNS
HCT-15 colon = system: HCT-15 colon
SK-MEL-28 melanoma = system: SK-MEL-28 melanoma
U251 CNS = system: U251 CNS
HOP-92 NSCLC = system: HOP-92 NSCLC
SF-295 CNS = system: SF-295 CNS
SW-620 colon = system: SW-620 colon
SK-MEL-5 melanoma = system: SK-MEL-5 melanoma

Row | Compound | TGI (NCI-H23 lung) [µM] | TGI (SK-MEL-2 melanoma) [µM] | TGI (SF-268 CNS) [µM] | TGI (HCT-15 colon) [µM] | TGI (SK-MEL-28 melanoma) [µM] | TGI (U251 CNS) [µM] | TGI (HOP-92 NSCLC) [µM] | TGI (SF-295 CNS) [µM] | TGI (SW-620 colon) [µM] | TGI (SK-MEL-5 melanoma) [µM] | GI50 (NCI-H23 lung) [µM] | GI50 (SK-MEL-5 melanoma) [µM] | GI50 (SK-MEL-2 melanoma) [µM] | GI50 (SF-268 CNS) [µM] | GI50 (HCT-15 colon) [µM] | GI50 (SK-MEL-28 melanoma) [µM] | GI50 (U251 CNS) [µM] | GI50 (SF-295 CNS) [µM] | GI50 (SW-620 colon) [µM] | GI50 (HOP-92 NSCLC) [µM]
1 | CCCCN(CCCC)CCCCNc1c(C)cnc2cc(Cl)ccc12 | > 100 | 39.9 | 85.3 | > 100 | 33.2 | > 100 | 36.2 | 50.8 | 56.8 |  |  |  |  |  |  |  |  |  |  | 
2 | Cc1ccc(S(=O)(=O)Oc2cc(S(=O)(=O)O)cc3cc(S(=O)(=O)O)cc(N)c23)cc1 | > 100 | > 100 | > 100 | > 100 | > 100 | > 100 | > 100 | > 100 | > 100 | > 100 |  |  |  |  |  |  |  |  |  | 
3 | CCN(CC)CCCC(Nc1c2ccc(Cl)cc2nc2ccc(OC)cc12)c1ccc(F)cc1 (stereo not given) | 7.9 | 4.35 | 5.33 | 3.27 | 3.2 | 3.88 |  | 3.16 | 3.65 | 3.15 | 2.56 | 1.7 | 2.1 | 2.28 | 1.56 | 1.71 | 1.92 | 1.6 | 1.79 | 
4 | CN1C2C=C(c3ccccc3)CC1CC2 (stereo not given) | > 100 | > 100 | > 100 | > 100 | > 100 | > 100 | > 100 | > 100 | > 100 | > 100 |  |  |  |  |  |  |  |  |  | 
5 | O=C(Nc1ccc(Cl)cc1)/C(Cc1cccc[n+]1[O-])=N\Nc1ccc([N+](=O)[O-])cc1[N+](=O)[O-] | > 100 | > 100 | > 100 | > 100 | > 100 | > 100 | > 100 | > 100 | > 100 | > 100 |  |  |  |  |  |  |  |  |  | 
6 | c1ccc2c(c1)nc1n2CSC1 | > 100 | > 100 | > 100 | > 100 | > 100 | > 100 | > 100 | > 100 | > 100 | > 100 |  |  |  |  |  |  |  |  |  | 
7 | CC1=C[C@]2(CC(C)C3C(CC4(C)C5CCC6C(C)(C)C(=O)CC[C@@]67C[C@@]57CC[C@]34C)O2)OC1=O (stereo not given in full) | > 100 | > 100 | > 100 | > 100 | > 100 | > 100 | 45.7 | 89.5 | > 100 | 20.2 |  |  |  |  |  |  |  |  |  | 
8 | CN1CCN(Cc2ccc(NC(=O)c3ccc(C#N)c(C#Cc4cnc(N)c5ncccc45)c3)cc2C(F)(F)F)CC1 |  | > 100 |  |  |  |  | 58.1 | 78.3 |  | 83.1 |  | 6.67 | 2.45 |  |  |  |  | 22.1 |  | 12.2
9 | CC(=O)[O-].CC(=O)[O-].[NH2-].[Pt+2].c1ccncc1 | > 100 | > 100 | > 100 | > 100 | > 100 | > 100 | > 100 | > 100 | > 100 | > 100 |  |  |  |  |  |  |  |  |  | 
10 | O=C1Nc2ccccc2Nc2nc3cccccc-3c21 | > 100 | > 100 | > 100 | > 100 | > 100 | > 100 | > 100 | > 100 | > 100 | > 100 |  |  |  |  |  |  |  |  |  | 
11 | CC1(C)CCc2cc3c(-c4ccccc4)cc(=O)oc3cc2O1 | > 100 | > 100 | > 100 | > 100 | > 100 | > 100 | 72.3 | > 100 | > 100 | > 100 |  |  |  |  |  |  |  |  |  | 
12 | Cc1nc2ccccc2c(=O)n1CC(=O)O | > 100 | > 100 | > 100 | > 100 | > 100 | > 100 | > 100 | > 100 | > 100 | > 100 |  |  |  |  |  |  |  |  |  | 
